# Measurements as given in paper PMC4097020 (Psychopharmacology, 2014).
# Read-outs that look alike come from different tables or passages of the source. Marks after values point to notes of the source that are not given here.
# Experiments:
# human D4.4 receptor = biological target: T1, human D4.4 receptor (Homo sapiens, UniProt P21917); assay: biochemical; format: binding
# T1 sequence (P21917 1-419): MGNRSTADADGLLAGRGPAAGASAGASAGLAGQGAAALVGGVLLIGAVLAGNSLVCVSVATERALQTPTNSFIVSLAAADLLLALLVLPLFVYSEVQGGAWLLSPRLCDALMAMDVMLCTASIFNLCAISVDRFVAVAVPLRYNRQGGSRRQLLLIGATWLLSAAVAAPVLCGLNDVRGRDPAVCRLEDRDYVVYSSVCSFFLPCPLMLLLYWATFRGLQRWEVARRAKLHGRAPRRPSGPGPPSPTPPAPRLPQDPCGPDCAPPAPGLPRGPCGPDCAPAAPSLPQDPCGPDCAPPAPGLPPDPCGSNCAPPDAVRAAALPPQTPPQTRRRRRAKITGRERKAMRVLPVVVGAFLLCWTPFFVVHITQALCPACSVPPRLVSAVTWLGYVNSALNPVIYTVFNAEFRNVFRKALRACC
# [1] = biological target: T2, recombinant human D2 receptor (Homo sapiens, UniProt P14416); assay: biochemical; format: binding
# [2] = test system: nontransfected HEK-293 cells; assay: IP-1 accumulation in nontransfected HEK-293 cells; format: cell-based, human; conditions: (+)mefloquine 100 μM, 5-HT 1 μM, LSD 10 nM
# [3] = biological target: T2, recombinant human D2 receptor; assay: cell-based; format: cell-based
# [4] = biological target: T3, recombinant human D3 receptor (Homo sapiens, UniProt P35462); conditions: for agonist activity at hD3 receptor, mitogenesis (in words): compared to quinpirole
# h5-HT2A receptor [5] = biological target: T4, h5-HT2A receptor (Homo sapiens, UniProt P28223); format: binding
# h5-HT2A receptor [6] = biological target: T4, h5-HT2A receptor; format: binding; remark: listed apart in the source
# h5-HT2A receptor [7] = biological target: T4, h5-HT2A receptor; assay: IP-1 formation in HEK-h5-HT2A cells; format: cell-based; conditions: for agonist character at h5-HT2A receptor, IP-1 formation (in words): compared to 5-HT
# [8] = biological target: T5, recombinant human 5-HT1A receptor (Homo sapiens, UniProt P08908); assay: [3H]8-OH-DPAT binding to HEK-h5-HT1A cell membranes
# T5 sequence (P08908 1-422): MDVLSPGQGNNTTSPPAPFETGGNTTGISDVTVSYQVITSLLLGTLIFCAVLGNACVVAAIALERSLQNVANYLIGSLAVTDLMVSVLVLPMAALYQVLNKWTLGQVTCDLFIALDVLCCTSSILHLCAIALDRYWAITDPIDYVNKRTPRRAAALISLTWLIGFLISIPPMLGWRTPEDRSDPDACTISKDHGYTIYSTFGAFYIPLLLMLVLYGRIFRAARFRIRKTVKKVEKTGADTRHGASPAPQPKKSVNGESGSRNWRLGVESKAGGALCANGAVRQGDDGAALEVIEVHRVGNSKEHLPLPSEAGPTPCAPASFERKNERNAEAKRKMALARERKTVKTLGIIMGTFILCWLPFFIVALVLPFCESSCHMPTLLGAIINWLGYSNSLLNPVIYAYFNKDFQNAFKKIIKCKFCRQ
# [9] = biological target: recombinant human 5-HT2A receptor (Homo sapiens, UniProt P28223); assay: [125I]DOI binding to HEK-h5-HT2A cell membranes
# [10] = biological target: recombinant human D1 receptor (Homo sapiens, UniProt P21728); assay: [3H]SCH23390 binding to LhD1 cells; conditions: read-out: D1 [3H]SCH23390 Ki (nM) ± SEM
# [11] = biological target: T3, recombinant human D3 receptor; assay: [3H]YM 09151-2 binding to CHOp-D3 cells
# [12] = biological target: T6, recombinant human norepinephrine transporter (Homo sapiens, UniProt P23975); assay: biochemical; format: binding
# [13] = biological target: T6, recombinant human norepinephrine transporter; assay: cell-based
# [14] = biological target: T7, recombinant human dopamine transporter (Homo sapiens, UniProt Q01959); assay: [3H]dopamine uptake by HEK-hDAT cells; format: cell-based
# [15] = biological target: T7, recombinant human dopamine transporter; assay: [125I]RTI-55 binding to HEK-hDAT cells
# [16] = biological target: T8, recombinant human 5-HT2C receptor (Homo sapiens, UniProt P28335); assay: biochemical; format: binding
# T8 sequence (P28335 33-458): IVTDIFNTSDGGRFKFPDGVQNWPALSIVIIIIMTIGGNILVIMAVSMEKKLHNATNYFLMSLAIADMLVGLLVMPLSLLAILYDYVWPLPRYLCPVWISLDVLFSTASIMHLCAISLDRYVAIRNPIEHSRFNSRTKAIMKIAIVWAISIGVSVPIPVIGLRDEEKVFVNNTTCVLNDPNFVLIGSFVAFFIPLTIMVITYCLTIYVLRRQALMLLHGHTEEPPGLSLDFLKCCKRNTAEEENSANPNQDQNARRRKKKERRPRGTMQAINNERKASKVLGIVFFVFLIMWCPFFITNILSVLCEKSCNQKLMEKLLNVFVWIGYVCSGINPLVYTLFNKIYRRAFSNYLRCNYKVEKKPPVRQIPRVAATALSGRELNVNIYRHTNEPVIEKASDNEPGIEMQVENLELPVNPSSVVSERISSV
# h5-HT2C receptor = biological target: T9, h5-HT2C receptor (Homo sapiens, UniProt P28335); assay: cell-based
# T9 sequence (P28335 33-458): T8 sequence (P28335 33-458)
# [17] = varies by preparation, ref Wiedekam et al., 1998, cited from earlier work
# [18] = prophylactic use; from 8.7 to 14 mg/kg with free/whole brain ratio […]
# [19] = read-out: D2 [3H]YM 09151-2 Ki, in μM
# [20] = read-out: D4.4 [3H]YM 09151-2 Ki, in μM
# [21] = read-out: h5-HT2C [125I]DOI Ki (nM) ± SEM, HEK-h5-HT2C membranes
# T2 sequence (P14416 whole entry): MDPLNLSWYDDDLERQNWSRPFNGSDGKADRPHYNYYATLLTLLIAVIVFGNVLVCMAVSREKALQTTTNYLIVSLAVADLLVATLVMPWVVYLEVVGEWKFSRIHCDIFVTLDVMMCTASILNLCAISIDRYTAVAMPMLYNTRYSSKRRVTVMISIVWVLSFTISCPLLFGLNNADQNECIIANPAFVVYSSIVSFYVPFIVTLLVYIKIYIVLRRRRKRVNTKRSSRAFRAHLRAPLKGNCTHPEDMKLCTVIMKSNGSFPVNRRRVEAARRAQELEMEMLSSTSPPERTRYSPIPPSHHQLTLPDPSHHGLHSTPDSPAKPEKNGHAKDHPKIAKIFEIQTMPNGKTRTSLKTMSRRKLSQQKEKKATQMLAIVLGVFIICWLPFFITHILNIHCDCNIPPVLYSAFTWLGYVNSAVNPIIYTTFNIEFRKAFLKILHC
# T6 sequence (P23975 whole entry): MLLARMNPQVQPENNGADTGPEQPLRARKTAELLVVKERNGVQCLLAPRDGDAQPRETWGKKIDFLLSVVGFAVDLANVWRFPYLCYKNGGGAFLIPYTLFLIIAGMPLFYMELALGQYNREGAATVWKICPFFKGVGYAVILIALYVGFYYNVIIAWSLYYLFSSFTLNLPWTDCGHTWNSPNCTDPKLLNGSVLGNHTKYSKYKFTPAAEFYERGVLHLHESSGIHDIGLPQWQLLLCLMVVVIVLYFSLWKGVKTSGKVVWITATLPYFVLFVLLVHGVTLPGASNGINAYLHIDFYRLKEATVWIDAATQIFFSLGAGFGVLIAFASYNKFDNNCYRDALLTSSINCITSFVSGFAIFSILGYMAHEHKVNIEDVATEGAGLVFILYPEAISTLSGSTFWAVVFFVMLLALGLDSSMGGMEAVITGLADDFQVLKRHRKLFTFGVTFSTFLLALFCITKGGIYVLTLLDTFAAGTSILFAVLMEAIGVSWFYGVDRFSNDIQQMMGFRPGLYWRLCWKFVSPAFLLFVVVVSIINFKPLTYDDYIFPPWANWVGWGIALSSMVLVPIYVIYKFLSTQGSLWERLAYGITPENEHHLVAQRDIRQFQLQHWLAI
# T4 sequence (P28223 whole entry): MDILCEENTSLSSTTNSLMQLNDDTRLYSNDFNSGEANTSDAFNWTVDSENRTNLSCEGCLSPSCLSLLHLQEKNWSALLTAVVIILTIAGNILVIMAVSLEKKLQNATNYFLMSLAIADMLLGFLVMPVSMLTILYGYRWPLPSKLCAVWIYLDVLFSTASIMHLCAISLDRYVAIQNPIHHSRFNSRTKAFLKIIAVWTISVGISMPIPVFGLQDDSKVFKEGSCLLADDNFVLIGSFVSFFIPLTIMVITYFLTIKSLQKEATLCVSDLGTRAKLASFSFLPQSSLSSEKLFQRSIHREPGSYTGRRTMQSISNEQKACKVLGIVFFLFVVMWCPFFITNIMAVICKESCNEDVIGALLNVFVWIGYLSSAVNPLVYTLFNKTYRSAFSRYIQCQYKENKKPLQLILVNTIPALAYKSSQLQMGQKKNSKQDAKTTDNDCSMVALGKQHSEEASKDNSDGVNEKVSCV
# T3 sequence (P35462 whole entry): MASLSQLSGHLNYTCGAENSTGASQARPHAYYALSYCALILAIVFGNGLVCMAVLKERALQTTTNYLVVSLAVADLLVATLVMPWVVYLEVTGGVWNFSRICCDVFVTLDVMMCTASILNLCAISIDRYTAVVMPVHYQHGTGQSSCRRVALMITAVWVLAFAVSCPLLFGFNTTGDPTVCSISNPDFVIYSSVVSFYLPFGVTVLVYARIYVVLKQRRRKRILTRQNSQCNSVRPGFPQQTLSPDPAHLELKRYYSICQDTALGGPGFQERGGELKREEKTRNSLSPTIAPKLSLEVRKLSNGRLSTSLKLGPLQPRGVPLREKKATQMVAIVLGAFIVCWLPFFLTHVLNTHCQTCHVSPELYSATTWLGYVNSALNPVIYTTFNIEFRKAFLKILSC
# T7 sequence (Q01959 whole entry): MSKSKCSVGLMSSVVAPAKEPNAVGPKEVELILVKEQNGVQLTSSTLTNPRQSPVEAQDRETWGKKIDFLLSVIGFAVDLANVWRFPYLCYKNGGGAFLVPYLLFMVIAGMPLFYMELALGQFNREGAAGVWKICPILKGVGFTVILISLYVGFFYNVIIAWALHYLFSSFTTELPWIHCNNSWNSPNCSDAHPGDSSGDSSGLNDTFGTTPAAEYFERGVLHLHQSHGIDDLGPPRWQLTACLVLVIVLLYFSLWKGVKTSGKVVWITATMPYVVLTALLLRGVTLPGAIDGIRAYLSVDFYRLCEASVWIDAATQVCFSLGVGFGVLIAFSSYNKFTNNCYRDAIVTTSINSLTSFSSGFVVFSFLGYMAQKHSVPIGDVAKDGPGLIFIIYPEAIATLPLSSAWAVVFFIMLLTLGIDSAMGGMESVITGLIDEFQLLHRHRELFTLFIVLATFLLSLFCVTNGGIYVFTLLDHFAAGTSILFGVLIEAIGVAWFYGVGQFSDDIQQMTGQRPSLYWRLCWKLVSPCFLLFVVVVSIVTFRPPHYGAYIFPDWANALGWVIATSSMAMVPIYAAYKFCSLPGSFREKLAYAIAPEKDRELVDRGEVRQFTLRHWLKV
# Chain of recombinant human 5-HT2A receptor (P28223 whole entry): as the sequence (P28223 whole entry) above
# Chain of recombinant human D1 receptor (P21728 whole entry): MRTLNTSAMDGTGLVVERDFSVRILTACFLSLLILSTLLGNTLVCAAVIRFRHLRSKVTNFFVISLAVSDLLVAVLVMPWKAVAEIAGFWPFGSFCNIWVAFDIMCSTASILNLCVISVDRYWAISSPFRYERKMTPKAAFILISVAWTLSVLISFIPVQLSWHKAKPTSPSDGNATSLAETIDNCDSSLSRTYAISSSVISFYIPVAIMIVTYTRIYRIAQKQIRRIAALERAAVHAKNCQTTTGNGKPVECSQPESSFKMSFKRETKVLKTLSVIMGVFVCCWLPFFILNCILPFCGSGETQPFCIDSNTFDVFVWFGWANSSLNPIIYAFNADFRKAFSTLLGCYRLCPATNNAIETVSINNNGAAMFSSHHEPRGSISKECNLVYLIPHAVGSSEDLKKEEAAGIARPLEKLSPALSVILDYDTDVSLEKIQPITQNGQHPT
smiles,measurement,setting,value
"CCN(CC)CCCC(C)Nc1ccnc2cc(Cl)ccc12 (racemic) [Chloroquine, (RS)-N′-(7-chloroquinolin-4-yl)-N, N-diethyl-pentane-1,4-diamine]",Ki,human D4.4 receptor,> 10 µM
"OC(c1cc(C(F)(F)F)nc2c(C(F)(F)F)cccc12)C1CCCCN1 (single isomer, unassigned; (-)) [(−)-Mefloquine]",Ki,[1]; [19],> 10 µM
same,Ki,human D4.4 receptor; [20],> 10 µM
"NCCc1c[nH]c2ccc(O)cc12 [5-HT, serotonin]",effect on IP-1 accumulation in nontransfected cells (in words),[2],no effect
O[C@H](c1cc(C(F)(F)F)nc2c(C(F)(F)F)cccc12)[C@@H]1CCCCN1 [(+)-Mefloquine],Ki,[1]; [19],> 10 µM
same,"antagonist activity at D2 receptor, mitogenesis (in words)",[3]; against quinpirole,no antagonist activity
same,"agonist activity at hD2 receptor, mitogenesis (in words)",[3]; compared to quinpirole,no agonist activity
same,Ki,human D4.4 receptor; [20],> 10 µM
same,"antagonist activity at D3 receptor, mitogenesis (in words)",[4]; against quinpirole,fully antagonized
same,D3 mitogenesis % inhibition,[4]; antagonism of quinpirole (30 nM)-stimulated mitogenesis,97.3 ± 2.7%
same,"agonist activity at hD3 receptor, mitogenesis (in words)",[4],no agonist activity
same,effect on IP-1 accumulation in nontransfected cells (in words),[2],no effect
CC(C)(C)[C@]1(O)CCN2C[C@H]3c4ccccc4CCc4cccc(c43)[C@@H]2C1 [Butaclamol],inhibition at 0.03 µM,[3]; read-out: D2 mitogenesis % inhibition,98.1 ± 1.9%
"CN(C)CCc1c[nH]c2ccccc12 [DMT, N,N-dimethyltryptamine]",Ki,h5-HT2A receptor [5],175 ± 42 nM
same,Ki,h5-HT2A receptor [6],53 ± 10 nM
same,EC50,h5-HT2A receptor [7],227 ± 64 nM
same,"agonist character at h5-HT2A receptor, IP-1 formation (in words)",h5-HT2A receptor [7],partial agonist
"COc1cc(CC(C)N)c(OC)cc1C (centres unmarked) [DOM, 2,5-dimethoxy-4-methylamphetamine]",Ki,[8],14200 nM
same,Ki,[9],4.3 ± 1.2 nM
same,Ki,h5-HT2A receptor [5],13.7 ± 6 nM
same,Ratio ketanserin/DOI Ki,"h5-HT2A receptor [5]; h5-HT2A, Ki [3H]ketanserin over Ki [125I]DOI",6.65 ^**
same,Ki,h5-HT2A receptor [6],2.06 ± 0.52 nM
same,EC50,h5-HT2A receptor [7],24.7 ± 8.5 nM
same,"agonist character at h5-HT2A receptor, IP-1 formation (in words)",h5-HT2A receptor [7],full agonists
"CCN(CC)C(=O)[C@@H]1C=C2c3cccc4[nH]cc(c34)C[C@H]2N(C)C1 [LSD, lysergic acid diethylamide]",Ki,[1]; read-out: D2 [3H]YM 09151-2 Ki (nM) ± SEM,0.0388 ± 0.0018 µM
same,D2 mitogenesis % stimulation,[3],47.9 ± 6.2%
same,"agonist activity at hD2 receptor, mitogenesis (in words)",[3],partial agonist
same,EC50,[3]; read-out: D2 mitogenesis EC50 (nM) ± SEM (n),18.1 nM
same,Ki,[10],273 ± 89 nM
same,Ki,human D4.4 receptor; read-out: D4.4 [3H]YM 09151-2 Ki (nM) ± SEM,0.33 ± 0.12 µM
same,Ki,[11]; read-out: D3 [3H]YM 09151-2 Ki (nM) ± SEM,27.1 ± 1.3 nM
same,"agonist character at h5-HT2A receptor, IP-1 formation (in words)",h5-HT2A receptor [7],full agonists
same,Ki,"[12]; read-out: Norepinephrine transporter, inhibition of [125I]RTI-55 binding Ki (nM) ± SEM",5600 nM
same,"agonist activity at hD3 receptor, mitogenesis (in words)",[4],full agonist
same,D3 mitogenesis % stimulation,[4]; normalized to the maximal stimulation by quinpirole,104.4 ± 6.1%
same,EC50,"[4]; read-out: D3 mitogenesis EC50 (nM) ± SEM (n), agonist mode, NC: the data did not converge",48 ± 14 nM
same,effect on IP-1 accumulation in nontransfected cells (in words),[2],no effect
"C=C[C@H]1C[N@@]2CC[C@H]1C[C@H]2[C@H](O)c1ccnc2ccc(OC)cc12 [Quinine, (R)-(6-Methoxyquinolin-4-yl)((2S,4S,8R)-8-vinylquinuclidin-2-yl)methanol]",IC50,[13],> 10000 nM
same,IC50,[14],> 10000 nM
same,Ki,[12],> 5500 nM
same,Ki,[15],> 8300 nM
C[C@H](N)Cn1ccc2cc(F)c(Cl)cc21 [Ro60-0175],Ki,[16]; [21],7.3 ± 1.6 nM
Cc1cc2c(cc1Cl)N(C(=O)Nc1ccc(Oc3cccnc3C)nc1)CC2 [SB242087],Ki,[8],> 9300 nM
same,Ki,[9],120 ± 32 nM
same,IC50,h5-HT2C receptor,0.167 ± 0.061 nM
same,h5-HT2C IP1 formation % inhibition,h5-HT2C receptor,93.7 ± 5.5%
same,Ki,[16],11.4 ± 4 nM
"CN1CCc2cc(Cl)c(O)cc2C(c2ccccc2)C1 (centres unmarked) [SCH23390, 7-chloro-3-methyl-1-phenyl-1,2,4,5-tetrahydro-3-benzazepin-8-ol]",Ki,[1],0.887 ± 0.017 µM
same,Ki,human D4.4 receptor,9.7 ± 1.1 µM
"Oc1cc2c(cc1O)C(c1ccccc1)CNCC2 (centres unmarked) [SKF 38393, 1-phenyl-2,3,4,5-tetrahydro-1H-3-benzazepine-7,8-diol]",Ki,human D4.4 receptor,28 ± 13 µM
same,Ki,[11],4300 ± 1800 nM
COc1ccccc1N1CCN(CCN(C(=O)C2CCCCC2)c2ccccn2)CC1 [WAY 100635],Ki,[16]; [21],3000 nM
"OC(c1cc(C(F)(F)F)nc2c(C(F)(F)F)cccc12)C1CCCCN1 (stereo not drawn) [mefloquine, [(R*, S*)-2,8-bis(trifluoromethyl)quinolin-4-yl]-(2-piperidyl)methanol]",Cmax,[17]; conversion of 1018 μg/L,~2600 nM
same,Cmax,[17],1018 ng/mL
same,"free mefloquine in brain, translated from brain levels",[18],100 to 135 nM
same,increase of IP-1 above basal activity in transfected cells,"h5-HT2A receptor [7]; HEK-h5-HT2A and HEK-h5-HT2C transfected cells together, 100 μM (+)mefloquine, Fig 2c",3–5 fold
